# Results published in US20040076659A1, “Additive for livestock feeds” (priority 1994, published 2004).
# How the values were obtained:
# [1] = Accelerated oxidation, Rancimat test of Polysorbate 80 coating on silica; format: physicochemical
# Experimental: Solid silica particles (LuctaCarrier™ silica, Lucta, S. A., Barcelona, Spain) are coated 50% wt/wt (based of the combined weight of the particles and coating) with a mixture of polyethylene 20 sorbitan monooleate (Polysorbate 80) and an amount of the antioxidants set forth in the tables, below, or no antioxidant as a control. The solid antioxidants (e.g., BHA or BHT) are dissolved in a suitable solvent (e.g., ethyl alcohol) and then mixed with the Polysorbate 80 at the listed concentration levels. The oxidative stability of the coating is then determined using the Rancimat test. Oxidative stability relates to how easily components of oil oxidize which creates off-flavors in the oil, and is measured by instrumental analysis using accelerated oxidation methods. American Oil Chemists' Society Official Method Cd 12-57 for Fat Stability: Active Oxygen Method (re'vd 1989); Rancimat (Laubli, M. W. and Bruttel, P. A., JOACS 63:792-795 (1986)); Joyner, N. T. and J. E. McIntyre, Oil and Soap (1938) 15:184 (modification of the Schaal oven test). The Rancimat method has been developed as the automated version of the AOM method (active oxygen method) for the determination of the induction time of fats and oils. In this method the highly volatile organic acids produced by autoxidation are absorbed in water and used to indicate the induction time. As used in the following tables, the abbreviations have the following meanings: […]
# [2] = Shelf life test, sensory panel rancidity score at 40° C.; format: physicochemical; conditions: 1000 ppm
# Experimental: The nonionic surfactant polyoxyethylene 20 sorbitan monooleate (Polysorbate 80) is coated in an amount of 50% wt/wt onto silica particles (i.e., in the proportion 50 g. of Polysorbate 80 per 50 g. of silica), either without (control) or with added antioxidant. A shelf life test is performed by measuring, using a sensory panel, the level of rancid odor of samples stored at 40° C., with a rancidity score being assigned to each sample (with a score of 0 for no rancid odors and 10 for highest level of rancid odors. The results are shown in Table 13, below.
# [3] = test system: rumen microbial proteinases; test: Protease activity of mixed rumen microbial cell enzyme source (casein substrate); format: biochemical, cows
# Experimental: Two rumen-fistulated, nonlactating cows averaging 623±12.5 kg in weight were fed 5 kg dry matter (DM) of low quality timothy hay twice daily. About 2.5L of rumen fluid was collected through the fistula 4 hrs after the morning feeding at 07:00 hrs. Bulk feed particles were removed by sieving the fluid through a 0.5 mm strain. The fluid was then composited and then stored in a prewarmed (37° C.) thermal container.
# A microbial powder was prepared using the acetone-butanol extraction procedure outlined by Mahadevan et al., “Preparation of protease from mixed rumen microorganisms and its use for the in vitro determination of true protein in feedstuffs,” Can. J. Anim. Sci. 67:55 (1987). About 500 g of this powder was prepared and stored at −20° C. Extraction of the proteases was accomplished by stirring 250 g of the powder with 1L of 4° C. cold water (for 1 hr) and then proceeding along Mahadevan's extraction procedure. Only extracts from the filtration with an XM-300 Amicon Filter, (approx. 300 000 molecular weight cutoff—under nitrogen gas), were made, washed twice with distilled water and the retentate freeze dried. This was referred to as the mixed microbial cell enzyme source. It was used in the protein adhesion tests and also in the parallel thiol and protease activity determinations.
# Ten grams of the mixed microbial cell enzyme was dissolved in 100 ml warm (37° C.) 0.1 M phosphate buffer, pH 6.8, and used as an enzyme inoculant. The assay matrix consisted of 1 ml enzyme source, 1 ml 2% casein solution, 1 ml 01 M phosphate buffer and 1 ml of either the relevant level of surfactant or an equivalent amount of buffer. Ten levels of the two surfactants, polyoxyethylene sorbitan monoleate (Tween 80) and polyoxyethylene sorbitan monastearate (Tween 60) were tested, viz 0, 0.08, 0.16, 0.24, 0.32, 0.4, 0.8, 1.2, 1.6, and, 2.0% surfactant in the assay mixture.
# The protease activity incubations were performed in 50 ml plastic centrifuge tubes, at 37° C. and under a stream of carbon dioxide gas. After 1.5 hr, 1 ml of the assay mixture was removed for the determination of thiols (SH) and disulfides (SS) (Sasago et al., “Determination of sulfhydryl and disulfide groups in milk by p-chloromercuribenzoate-diathizone method,” J. Dairy Sci. 46:1348-1351 (1963)). At the end of 2 hr incubation, the reaction was stopped with 1 ml of 15% TCA (trichloroacetic acid) solution, cooled to 4° C. under an icebath, and centrifuged at 10,000 for 10 min. The free amino acids in the supernatant were assayed using the ninhydrin method (Rosen, “a Modified Colorimetric Analysis For Amino Acids,” Arch. Biochim. Biophys. 67:10 (1957)). The optimal surfactant inclusion level was calculated by direct linear plots on the assumption that the Michaellis-Menten equation applied.
# [4] = Griffin et al., 1972; cited from earlier work
# rumen cellulase activity = test: In vitro cellulose degradation by rumen bacterial inoculum; format: biochemical, cows; conditions: 0.25% surfactant in reaction mixture; regression on initial 24 hr
# Experimental: A bacterial fraction, largely free of protozoa, was prepared for the fermentation assays by using the procedure of Forsberg, “Some Effects of Arsenic on the Rumen Microflora; An In Vitro Study,” Can. J. Microbiol. 24:36 (1978). The digesta inoculum was resuspended and washed twice in an equivalent amount of 0.1 M phosphate buffer pH 6.8 to the rumen fluid. The inoculum provided both, the substrate and the enzyme used for cellulose degradation assay. Incubation periods were 0, 1.5, 3, 6, 12, 24, and 48 hr. Other incubation conditions were similar to those outlined in experiment 1 above. However, cellulose was determined by the method of Updergraff, supra, for the in vivo digestibility trial. The optimal level of Tween 80 obtained was adopted here and followed.
# [5] = direct linear plots, Michaelis-Menten assumed
compound,measurement,setting,value
"Cc1cc(C(C)(C)C)c(O)c(C(C)(C)C)c1 [BHT, butylated hydroxytoluene]",Rancimat Stability,"[1]; Table 7, 200 ppm in Polysorbate 80 coating on silica",1.75 h
same,Rancimat Stability,"[1]; Table 8, 200 ppm",1.85 h
same,Rancimat Stability,"[1]; Table 9, 200 ppm",4.45 h
same,Rancimat Stability,"[1]; Table 10, 200 ppm",6.15 h
"CCOc1ccc2c(c1)C(C)=CC(C)(C)N2 [EQ, ethoxyquin]",Rancidity Score,"[2]; 1 week, score 0 (no rancid odors) to 10",1.0
same,Rancidity Score,[2]; 2 weeks,2.0
same,Rancidity Score,[2]; 6 weeks,3.5
same,Rancidity Score,[2]; 10 weeks,5.0
polyoxyethylene sorbitan monastearate [Tween 60],Initial rate of proteinase activation,[3]; control=0,98.04%
same,"Km (additive conc.), proteinase activation",[3]; [5],0.28 ± 0.02a %
same,Vmax (maximum proteinase activation),[3]; [5],99.2 ± 2.7a %/unit additive conc.
same,HLB (hydrophile-lipophile balance),[4],14.9
same,Initial rate of cellulose degradation,rumen cellulase activity,0.87b (0.28) μg/ml/hr
